Laboratory results reported in paper PMC8597634, “4-Iminooxazolidin-2-One as a Bioisostere of Cyanohydrin Suppresses EV71 Proliferation by Targeting 3C^pro” (Microbiology Spectrum, 2021).
Read-outs that look alike come from different tables or passages of the source.

Tests used:
[1] = test system: EV71-luciferase virus; test: Time-of-addition assay with EV71-luciferase virus in RD cells; assay type: cell-based; details: −6 to 10 hpi, FOPMC 5 μM, FIOMC 5 μM, GPP3 1 μM
[2] = test system: EV71; details: cited from earlier work
[3] = test system: HRV; set-up: method as in PMID 20066739, PMID 21536800, PMID 23295352, PMID 23633597; details: cited from earlier work
[4] = test system: EV-D68; set-up: method as in PMID 25554786; details: cited from earlier work
[5] = test system: EV71-A; test: Antiviral activity by qRT-PCR in RD cells, EV71-A; assay type: cell-based; details: Enterovirus A
Experimental: (§1) The viral genome replication inhibition in host cells after treatment with FOPMC and FIOMC was monitored by EV71 genotype C Fuyang virus. Briefly, RD cells were cultured at 1.5 × 10^5 per well at 37°C for 24 h and then incubated with gradient-diluted FOPMC, FIOMC, and virus. The intracellular RNAs were extracted using TRIzol (TransGen, China) after 24 hpi. The real-time quantitative PCR (qRT-PCR) assays were performed with a SYBR RT-PCR kit (Bio-Rad, USA) for the EV71 5′ […] region (UTR) and the host GAPDH. The transcript copies of EV71 5′ UTR and GAPDH were calculated using the threshold cycle (ΔΔCT) method ([35]).
(§2) To evaluate the antiviral effect of FOPMC and FIOMC on various viral strains, we measured the EC50s of these two inhibitors on five virus strains. RD cells were treated with FOPMC/FIOMC (0.003 to 50 μM) and each viral strain for 2 h. The antiviral activity was conducted by qRT-PCR according to the method described above.

[6] = cited from earlier work
[7] = test system: EV71 VP1; test: Expression of EV71 VP1 in RD cells; assay type: cell-based; details: GAPDH invariable
[8] = test system: EV71-C; test: Antiviral activity by qRT-PCR in RD cells, EV71-C; assay type: cell-based; details: Enterovirus A
Experimental: as §1, §2

[9] = test system: EV71; test: Selection of resistant virus by continuous culture of EV71; assay type: cell-based; details: EV71 cultured for 20 rounds, sequence analyses
[10] = cited from earlier work; remark: listed apart in the source
[11] = test system: EV71-luciferase virus; test: EC50 with EV71-luciferase virus on VeroE6 cells; assay type: cell-based; details: Enterovirus A, EV71, Vero C1008, 24 h
Experimental: (§3) One hundred microliters each of RD (3 × 10^5 cells/ml), VeroE6 (3 × 10^5 cells/ml), and HEK-293T cells (2 × 10^5 cells/ml) was cultured overnight. Each 96-well plate of cells was treated with EV71-luciferase virus and diluted FOPMC/FIOMC (diluted from 3 nM to 20 μM) for 24 h. The luciferase signals were tested using the firefly luciferase kit (Promega, USA). All of the EC50s were profiled by Graph Pad Prism 7.0.

[12] = test system: EV71-GFP; test: Phenotype assay with EV71-GFP reporter virus in RD cells; assay type: cell-based; details: 0.16 to 20 μM, 24 h
Experimental: RD cells (3 × 10^4 per well) were cultured in 96-well plates overnight. Diluted compounds (0.16 to 20 μM) and EV71-GFP reporter virus were added to RD cells. After 24 hpi, the GFP was monitored using confocal microscopy (Olympus, Japan).

[13] = test system: EV71-B; test: Antiviral activity by qRT-PCR in RD cells, EV71-B; assay type: cell-based; details: Enterovirus A
Experimental: as §1, §2

[14] = test system: RD cells; test: Cytotoxicity (CellTiter-Glo) on RD cells; assay type: cell-based, human; details: even at 200 μM, 48 h
Experimental: (§4) Determination of the cytotoxicity of FOPMC and FIOMC was performed on three cell lines using a CellTiter-Glo kit (Promega, USA). Briefly, RD, VeroE6, and HEK-293T cells were treated with gradient dilutions of […] (from 0.78 to 200 μM) for 48 h. CellTiter-Glo reagents were applied to evaluate the cells' viability by a microplate reader.

[15] = test system: EV71-luciferase virus; test: EC50 with EV71-luciferase virus on RD cells; assay type: cell-based; details: Enterovirus A, 24 h
Experimental: as §3

[16] = test system: CVB3; test: Antiviral activity by qRT-PCR in RD cells, CVB3; assay type: cell-based, coxsackievirus B3; details: Enterovirus B
Experimental: as §1, §2

[17] = biological target: T1, EV71 3C^pro (Human enterovirus 71, UniProt Q66478); test: Inhibitor constant (Ki) enzymatic FRET assay; assay type: biochemical; details: 0.5 μM EV71 3C^pro, 100 μM peptide, 2 h
T1 construct: The EV71 3C^pro plasmid was amplified and linked into a pET-28a vector; 6xHis; made in house; host or cells: Escherichia coli
Experimental: The inhibitor constants (Kis) were determined by fluorescence resonance energy transfer (FRET) using NMA-IEALFQGPPK(DNP)FR peptide. The assays were performed with 50 mM Tris-HCl–150 mM NaCl (pH 7.0) with 0.5 μM EV71 3C^pro and gradient-diluted FOPMC/FIOMC. Subsequently, 100 μM each peptide was hydrolyzed for 2 h. The fluorescence signals were monitored at a microplate reader (Perkin Elmer, USA).

[18] = test system: VeroE6 cells; test: Cytotoxicity (CellTiter-Glo) on VeroE6 cells; assay type: cell-based; details: even at 200 μM, 48 h
Experimental: as §4

[19] = test system: EV71-luciferase virus; test: EC50 with EV71-luciferase virus on HEK-293T cells; assay type: cell-based; details: Enterovirus A, EV71, HEK-293T, 24 h
Experimental: as §3

[20] = test system: pEV71-replicon RNA; test: pEV71-replicon RNA assay in RD cells; assay type: cell-based, EV71; details: RD cells transfected with pEV71-replicon RNA, 5 μM
Experimental: RD cells (3 × 10^4 per well) were treated with FOPMC (5 μM), FIOMC (5 μM), GPP3 (1 μM), NK-1.8k (2 μM), and EV71-luciferase virus, respectively. Another plate of RD cells was treated with the same concentrations of the four inhibitors and transfected with pEV71-replicon RNA. After 24 hpi, the luciferase activity was determined using Bright-Glo luciferase substrate (Promega, USA).

[21] = test system: CVA16; test: Antiviral activity by qRT-PCR in RD cells, CVA16; assay type: cell-based, coxsackievirus A16; details: Enterovirus A
Experimental: as §1, §2

[22] = test system: EV71 genotype C Fuyang virus; test: qRT-PCR of viral genome replication, EV71 Fuyang virus in RD cells; assay type: cell-based; details: Enterovirus A, 24 hpi
Experimental: as §1

[23] = biological target: T1, EV71 3C^pro; test: Hydrolytic activity inhibition of EV71 3C^pro on precursor 3BC (SDS-PAGE); assay type: biochemical; details: 100 μM 3C^pro, molar ratio 1:5, GST-3BC-C147A 50 μM
Experimental: To ascertain whether FOPMC and FIOMC inactivated EV71 3C^pro to hydrolyze the precursor 3BC, the fusion protein GST-3BC with a catalytic central residue C147A mutation was expressed. A 100 μM concentration of EV71 3C^pro and FOPMC/FIOMC (at a molar ratio of 1:5) was incubated at 30°C for 2 h. GST-3BC (50 μM) protein was added for another 4 h, and the reagents were analyzed using SDS-PAGE.

[24] = test system: HEK-293T cells; test: Cytotoxicity (CellTiter-Glo) on HEK-293T cells; assay type: cell-based; details: even at 200 μM, 48 h
Experimental: as §4

[25] = test system: five viral strains; test: Antiviral activity on five viral strains (summary in discussion); assay type: cell-based; details: read-out: EC50s depending on the specific virus
Experimental: as §2

Compound: CCON=Cc1ccc(OCCC(C)CCN2CCN(c3ccncc3)C2=O)cc1 (stereo not shown) [GPP3, reference compound]
- inhibitory effect by time of addition [1]: dramatically decreased from 4 hpi

Compound: C[C@@H]1O[C@@H](OC[C@H]2O[C@@H](Oc3c(-c4ccc(O)c(O)c4)oc4cc(O)cc(O)c4c3=O)[C@H](O)[C@@H](O)[C@@H]2O)[C@H](O)[C@H](O)[C@H]1O [rutin]
- EC50 ([2]; anti-EV71 activity): 110000 nM

Compound: CCOC(=O)/C=C/[C@H](C[C@@H]1CCNC1=O)NC(=O)[C@@H](CC(=O)[C@@H](NC(=O)c1cc(C)on1)C(C)C)Cc1ccc(F)cc1 [AG7088]
- EC50 [3]: 13 nM
- EC50 ([2]; EV71): 1670 nM

Compound: O=c1c(O)c(-c2ccc(O)c(O)c2)oc2cc(O)cc(O)c12 [quercetin]
- EC50 ([2]; EV71): 12100 nM

Compound: Cc1cc(CCCOc2c(C)cc(-c3noc(C(F)(F)F)n3)cc2C)on1 [pleconaril]
- EC50 [4]: 430 nM

Compound: CCCN1C(=N)C(C(CC2CCCNC2=O)NC(=O)C(Cc2ccc(F)cc2)NC(=O)c2cc(C)on2)OC1=O (stereo not shown) [FOPMC]
- EC50 [5]: 115 ± 2 nM
- inhibitory effect by time of addition [1]: valid inhibitory effects regardless of the time
- half-life [t1/2] in human plasma [6]: exceed 120 min
- expression of EV71 VP1 [7]: inhibited
- EC50 [8]: 128 ± 9 nM
- resistance mutation after continuous culture [9]: no mutation of EV71 virus
- t1/2 in mouse plasma [10]: exceed 120 min
- EC50 [11]: 202 ± 15 nM
- replication of EV71-GFP in phenotype screen [12]: positive results
- EC50 [13]: 135 ± 4 nM
- Cytotoxicity [14]: no apparent cytotoxic effect
- EC50 [15]: 244 ± 12 nM
- EC50 [16]: 210 ± 5 nM
- Ki [17]: 83 ± 1 nM
- Cytotoxicity [18]: no apparent cytotoxic effect
- EC50 [19]: 299 ± 28 nM
- effect on replicon [20]: impacted the virus replication stage
- EC50 [21]: 217 ± 14 nM
- EC50 [22]: 123 ± 4 nM
- hydrolysis of 3BC by 3C^pro [23]: distinctly restrained the hydrolysis
- Cytotoxicity [24]: no apparent cytotoxic effect

Compound: Cc1cc(C(=O)NC(Cc2ccc(F)cc2)C(=O)NC(CC2CCCNC2=O)C2OC(=O)N(C(C)C)C2=N)no1 (stereo not shown) [FIOMC]
- EC50 [5]: 96 ± 1 nM
- inhibitory effect by time of addition [1]: valid inhibitory effects regardless of the time
- half-life [t1/2] in human plasma [6]: exceed 120 min
- expression of EV71 VP1 [7]: inhibited
- EC50 [8]: 75 ± 3 nM
- resistance mutation after continuous culture [9]: no mutation of EV71 virus
- t1/2 in mouse plasma [10]: exceed 120 min
- EC50 [11]: 104 ± 8 nM
- replication of EV71-GFP in phenotype screen [12]: positive results
- EC50 [13]: 102 ± 9 nM
- Cytotoxicity [14]: no apparent cytotoxic effect
- EC50 [15]: 92 ± 3 nM
- EC50 [25]: 80 to 125 nM
- EC50 [16]: 80 ± 4 nM
- Ki [17]: 33 ± 8 nM
- Cytotoxicity [18]: no apparent cytotoxic effect
- EC50 [19]: 93 ± 7 nM
- effect on replicon [20]: impacted the virus replication stage
- EC50 [21]: 125 ± 2 nM
- EC50 [22]: 67 ± 1 nM
- hydrolysis of 3BC by 3C^pro [23]: distinctly restrained the hydrolysis
- Cytotoxicity [24]: no apparent cytotoxic effect

Compound: Cc1cc(C(=O)NC(Cc2ccc(F)cc2)C(=O)NC(CC2CCCNC2=O)C(O)C#N)no1 [(R)-1, reference compound]
- half-life [t1/2] in human plasma [6]: 11 min

Compound: O=c1c(O)c(-c2ccc(O)c(O)c2)oc2cc(O)ccc12 [Fisetin]
- EC50 ([2]; anti-EV71 activity): 85000 nM

Compound: O=c1cc(-c2ccc(O)c(O)c2)oc2cc(O[C@@H]3O[C@H](CO)[C@@H](O)[C@H](O)[C@H]3O)cc(O)c12 [Luteoloside]
- EC50 ([2]; cytopathy caused by EV71 infection): 430000 nM
